Source: patent US20260257987A1, “COMPOUNDS AND METHOD FOR UPREGULATION OF P53 THROUGH INDUCTION OF MDM2 DEGRADATION” (Georgia State University Research Foundation, Inc., priority 2022, published 2026)
“Also recorded” adds a separate entry of the source. Read-outs that look alike come from different tables or passages of the source. Blank lines part the entries; values can stand above or below the compound they belong to.

Assays:
EU-1 ALL cells = settings: background; cited from earlier work
EU-1 cells = test: Cytotoxicity test (CCK-8 cell viability) in EU-1 cells; assay type: cell-based; settings: for IC50: read-out: IC50 (μM) in EU-1 cells; for fold more potent than BW-AQ-238: compared to BW-AQ-238
Protocol: (§1) Cell viability was assessed by using Cell Counting Kit-8 (CCK-8, Dojindo, Japan). EU-1 and RS4;11 cells were cultured in RPMI-1640 medium (Corning, USA); MCF7 and HEK-293 cells were cultured in MEM (Corning, USA); and HeLa and H9c2 cells were cultured in high glucose DMEM (Corning, USA). All the culture mediums were supplemented with 10% fetal bovine serum (Corning, USA) and 100 unit/ml penicillin, and […] streptomycin. For cytotoxicity assays, cells were seeded into 96-well plates at a density of 3× 10^5 cells per well (50 μL). Compounds were dissolved in DMSO (molecular biology grade, Sigma-Aldrich, USA) to make 10 mM stock solutions, which were serially diluted with the culture medium to various concentrations (final DMSO concentration=0.5%). A culture medium (50 μL) containing the anthraquinone analog was added directly to the cell suspension in each well immediately after seeding. After incubation for 24 h at 37° C. in a humidified atmosphere with 5% CO2, 10 μL of CCK-8 solution was added to each well, and the plate was incubated for an additional 2-4 h at 37° C. before measuring the optical density at 450 nm with a microplate reader (PerkinElmer Victor 2, USA). The cell viability of each well was calculated as the percentage of the untreated control according to the manufacturer's manual. All tests were performed in triplicates, and IC50 values were determined with six concentrations by non-linear regression using GraphPad Prism 9.

RS4;11 cells = test: Cytotoxicity test (CCK-8) in RS4;11 cells; assay type: cell-based; settings: Homo sapiens
Protocol: as §1, with “A culture medium (50 μL) containing the anthraquinone analog was added directly to the cell suspension in each well immediately after seeding.” left out

HeLa cells = test: Cytotoxicity test (CCK-8) in HeLa cells; assay type: cell-based; settings: for IC50: Homo sapiens, HeLa cells
Protocol: as §1

HEK-293 cells = test: Cytotoxicity test (CCK-8) in HEK-293 cells; assay type: cell-based; settings: Homo sapiens, HEK293
Protocol: as §1, with “A culture medium (50 μL) containing the anthraquinone analog was added directly to the cell suspension in each well immediately after seeding.” left out

[1] = Thiol (NAC) reactivity study by HPLC; assay type: physicochemical; settings: for order of reactivity with NAC (pseudo-first-order kinetics): 0.3 mM analog, 1.5 mM NAC
Protocol: HPLC was performed on Shimadzu LC-20AT HPLC system. Condition: mobile phase A: water with 0.05% TFA; B: acetonitrile with 0.05% TFA; gradient: 5-95% B, 0-10 min; […]; 5% B 12.1-15 min. Column: C18, 3.5 μm, 4.6×150 mm; UV detector monitored at 254 nm. For the thiol reactivity assay, a 0.3 mM solution of AQ-analogs was prepared in 0.5 mL PBS: MeOH (80:20) and warmed at 37° C. Next, 25 μL of NAC (from 30 mM stock solution in PBS) was added to the above solution. The resultant solution had final concentrations of 0.3 mM AQ-analogs and 1.5 mM NAC. 20 μL of the reaction mixture was injected into the HPLC at the designated time intervals. The area percentage values were determined via the integration of the area under the curve (AUC) of the chromatogram.

[2] = tested on: MDM2 and p53 in EU-1 leukemia cells; test: Western blot of MDM2 and p53 in EU-1 leukemia cells; assay type: cell-based; settings: EU-1 cells; for MDM2 and p53 level by Western blot, dose and time dependence: GAPDH loading control
Protocol: Western Blot 5×10^6 cells were seeded in a 6-well plate and incubated for 12 h before the drug-loaded medium was added. The cells were harvested at designated time points, washed with cold PBS, and centrifuged at 1500 rpm×3 min. Then the cells were lysed by adding 100 μL of cold NP-40 buffer (supplied with complete™ protease Inhibitor tablet (Roche, USA)) and 1 mM PMSF (Thermo-Fisher, USA) on ice for 30 min. The cell lysates were centrifuged at 12500×g at 4° C. for 10 min, and the total protein concentration in the supernatant was measured with the BCA assay (Thermo-Fisher, USA). 30 μL of the cell lysate was mixed with 10 μL 4×Laemmli sample buffer and denatured at 95° C. for 5 min. The total protein concentration was adjusted with 1×Laemmli sample buffer. Equal amounts of protein sample were loaded onto a 4-15% gradient SDS-PAGE gel (Bio-rad, USA). After electrophoresis, the protein was transferred to the […] membrane (Bio-rad, USA) with the Trans-Blot Turbo system (Bio-rad, USA). The target protein was probed with the corresponding antibody using iBind Western Systems (Thermo-Fisher, USA), according to the manufacturer's manual. Antibody and dilution profile: MDM2 ((SMP14), 1:500 Santa Cruz, USA); p53 ((DO-1), 1:800, Santa Cruz, USA); GAPDH ((0411), 1:2000, Santa Cruz, USA) and HRP conjugated goat anti-mouse secondary antibody (1:2000, Bio-rad, USA). After incubation with Pierce ECL Plus Substrate (Thermo Scientific), chemiluminescent was detected and imaged with LSA^4000 (GE Healthcare, Fairfield, USA).

H9c2 cells = test: Cytotoxicity test (CCK-8) in H9c2 cells; assay type: cell-based; settings: Rattus norvegicus
Protocol: as §1, with “A culture medium (50 μL) containing the anthraquinone analog was added directly to the cell suspension in each well immediately after seeding.” left out

MCF7 cells = test: Cytotoxicity test (CCK-8) in MCF7 cells; assay type: cell-based; settings: Homo sapiens
Protocol: as §1, with “A culture medium (50 μL) containing the anthraquinone analog was added directly to the cell suspension in each well immediately after seeding.” left out

[3] = tested on: RS4;11 cells (wild-type p53); test: Cytotoxicity test of BW-AQ-365 (CCK-8) in RS4;11 cells; assay type: cell-based; settings: Homo sapiens; RS4; 11, 25000 cells/well, 48 h, positive control
Protocol: Cell viability was assessed by using Cell Counting Kit-8 (CCK-8, Dojindo, Japan). RS4;11 cells (wild-type p53) were cultured in RPMI-1640 medium (Corning, USA). The culture mediums were supplemented with 10% fetal bovine serum (Corning, USA) and 100 unit/ml penicillin, and […] streptomycin. […] Compounds were dissolved in DMSO (molecular biology grade, Sigma-Aldrich, USA) to make 10 mM stock solutions, which were serially diluted with the culture medium to various concentrations (final DMSO concentration=0.5%). A culture medium (50 μL) containing BW-AQ-365 was added directly to the cell suspension in each well immediately after seeding. After incubation for 24-72 h at 37° C. in a humidified atmosphere with 5% CO2, 10 μL of CCK-8 solution was added to each well, and the plate was incubated for an additional 2-4 h at 37° C. before measuring the optical density at 450 nm with a microplate reader (PerkinElmer Victor 2, USA). The cell viability of each well was calculated as the percentage of the untreated control according to the manufacturer's manual. All tests were performed in triplicates, and IC50 values were determined by non-linear regression using GraphPad Prism 9.0.

[4] = EU-1 cells, 24 h incubation, CCK-8
[5] = EU-1 cells, compared to BW-AQ-295

SMILES: O=C(CCl)Nc1cc(O)c2c(c1)C(=O)c1cccc(O)c1C2=O [BW-AQ-101, 2-chloro-N-(4,5-dihydroxy-9,10-dioxo-9,10-dihydroanthracen-2-yl)acetamide]
- IC50 (EU-1 ALL cells): ~800 nM

SMILES: O=C(CCl)Nc1cc(OCCO)c2c(c1)C(=O)c1cccc(OCCO)c1C2=O [BW-AQ-238, reference compound]
- IC50 (EU-1 cells; [4]): 0.74 ± 0.12 µM

SMILES: CC(=O)CCOc1cccc2c1C(=O)c1c(OCCC(C)=O)cc(NC(=O)CCl)cc1C2=O [BW-AQ-260, 2-chloro-N-(9,10-dioxo-4,5-bis(3-oxobutoxy)-9,10-dihydroanthracen-2-yl)acetamide]
- IC50 (EU-1 cells; [4]): 0.45 µM
- fold more potent than BW-AQ-238 (EU-1 cells; EU-1 cells): about 3 fold

- reactivity towards thiol, in words [1]: reacts with thiol species
SMILES: CC(=O)CCCOc1cccc2c1C(=O)c1c(OCCCC(C)=O)cc(NC(=O)CCl)cc1C2=O [BW-AQ-295, 2-chloro-N-(9,10-dioxo-4,5-bis ((4-oxopentyl)oxy)-9,10-dihydroanthracen-2-yl)acetamide]
- IC50 (RS4;11 cells): 690 ± 100 nM
- fold less potency in HeLa cells compared to MCF7 cells (HeLa cells; HeLa vs MCF7): over 2 fold
- IC50 (HeLa cells): 2310 ± 80 nM
- IC50 (HEK-293 cells): 1160 ± 340 nM
- IC50 (EU-1 cells; [4]): 0.43 ± 0.06 µM
- fold more potent than BW-AQ-238 (EU-1 cells; EU-1 cells): about 3 fold
- order of reactivity with NAC (pseudo-first-order kinetics) ([1]; 37° C. in PBS, HPLC): BW-AQ-350 >BW-AQ-353 >BW-AQ-295 ~ BW-AQ-354 >>BW-AQ-349
- MDM2 and p53 level by Western blot, time course ([2]; 0.8 μM): decreased MDM2 and increased p53 level were observed from the 4-h time point
- MDM2 level by Western blot ([2]; 2 μM, 6 h): decreased MDM2 to an almost undetectable level
- MDM2 and p53 level by Western blot, dose and time dependence [2]: decrease MDM2 level and increase p53 level in a dose- and time-dependent manner; also recorded: downregulate MDM2 and upregulate p53 in EU-1 cells in a time- and dose-dependent fashion; also recorded: downregulation of MDM2 and upregulation p53
- IC50 (H9c2 cells): 1120 ± 200 nM
- IC50 (MCF7 cells): 950 ± 170 nM

SMILES: CC(=O)CCCOc1cc(NC(=O)CCl)cc2c1C(=O)c1c(O)cccc1C2=O [BW-AQ-336, 2-chloro-N-(5-hydroxy-9,10-dioxo-4-((4-oxopentyl)oxy)-9,10-dihydroanthracen-2-yl)acetamide]
- IC50 (EU-1 cells; [4]): 0.84 ± 0.02 µM
- fold decrease in potency / less potent compared to BW-AQ-295 (EU-1 cells; [5]): about 2 fold

SMILES: CC(=O)CCCCOc1cccc2c1C(=O)c1c(OCCCCC(C)=O)cc(NC(=O)CCl)cc1C2=O [BW-AQ-345, 2-chloro-N-(9,10-dioxo-4,5-bis ((5-oxohexyl)oxy)-9,10-dihydroanthracen-2-yl)acetamide]
- IC50 (EU-1 cells; EU-1, 24 h): 0.79 ± 0.03 µM

SMILES: CC(=O)CCCOc1cccc2c1C(=O)c1c(OCCCC(C)=O)cc(NC(C)=O)cc1C2=O [BW-AQ-349, N-(9,10-dioxo-4,5-bis ((4-oxopentyl)oxy)-9,10-dihydroanthracen-2-yl)acetamide]
- IC50 (EU-1 cells; EU-1, 24 h): > 100 µM
- cytotoxicity in EU-1 cells, in words (EU-1 cells; EU-1 cells): lack of activity
- stability in presence of NAC ([1]; 37° C. in PBS, HPLC): remained unchanged during the study duration (>400 min)
- order of reactivity with NAC (pseudo-first-order kinetics) ([1]; 37° C. in PBS, HPLC): BW-AQ-350 >BW-AQ-353 >BW-AQ-295 ~ BW-AQ-354 >>BW-AQ-349

SMILES: C#CC(=O)Nc1cc(OCCCC(C)=O)c2c(c1)C(=O)c1cccc(OCCCC(C)=O)c1C2=O [BW-AQ-350, N-(9,10-dioxo-4,5-bis ((4-oxopentyl)oxy)-9,10-dihydroanthracen-2-yl) propiolamide]
- IC50 (RS4;11 cells): 520 ± 70 nM
- IC50 (HeLa cells): 4670 ± 250 nM
- IC50 (HEK-293 cells): 2350 ± 690 nM
- IC50 (EU-1 cells; [4]): 0.19 µM
- fold increase in potency compared to BW-AQ-295 (EU-1 cells; [5]): 2 fold
- reactivity towards thiol, in words [1]: high reactivity towards nucleophile such as thiol and amino acid
- order of reactivity with NAC (pseudo-first-order kinetics) ([1]; 37° C. in PBS, HPLC): BW-AQ-350 >BW-AQ-353 >BW-AQ-295 ~ BW-AQ-354 >>BW-AQ-349
- MDM2 and p53 level by Western blot, dose and time dependence [2]: induced decrease in MDM2 levels in a dose- and time-dependent fashion; also recorded: downregulate MDM2 and upregulate p53 in EU-1 cells in a time- and dose-dependent fashion; also recorded: downregulation of MDM2 and upregulation p53
- IC50 (H9c2 cells): ~300 nM
- IC50 (MCF7 cells): 4930 ± 450 nM

SMILES: C=CC(=O)Nc1cc(OCCCC(C)=O)c2c(c1)C(=O)c1cccc(OCCCC(C)=O)c1C2=O [BW-AQ-353, N-(9,10-dioxo-4,5-bis ((4-oxopentyl)oxy)-9,10-dihydroanthracen-2-yl) acrylamide]
- IC50 (EU-1 cells; [4]): 6.21 ± 0.45 µM
- fold decrease in potency / less potent compared to BW-AQ-295 (EU-1 cells; [5]): about 15 fold
- order of reactivity with NAC (pseudo-first-order kinetics) ([1]; 37° C. in PBS, HPLC): BW-AQ-350 >BW-AQ-353 >BW-AQ-295 ~ BW-AQ-354 >>BW-AQ-349

SMILES: C=CS(=O)(=O)Nc1cc(OCCCC(C)=O)c2c(c1)C(=O)c1cccc(OCCCC(C)=O)c1C2=O [BW-AQ-354, N-(9,10-dioxo-4,5-bis ((4-oxopentyl)oxy)-9,10-dihydroanthracen-2-yl) ethenesulfonamide]
- cytotoxicity in EU-1 cells, in words (EU-1 cells; EU-1 cells): more potent than BW-AQ-353
- IC50 (EU-1 cells; [4]): 3.45 ± 0.45 µM
- order of reactivity with NAC (pseudo-first-order kinetics) ([1]; 37° C. in PBS, HPLC): BW-AQ-350 >BW-AQ-353 >BW-AQ-295 ~ BW-AQ-354 >>BW-AQ-349

SMILES: COc1cccc2c1C(=O)c1c(O)c3c(c(O)c1C2=O)C[C@@](O)(C(=O)CO)C[C@@H]3O[C@H]1C[C@H](N)[C@H](O)[C@H](C)O1 [Doxorubicin, reference compound]
- IC50 (EU-1 cells; [4]): 0.15 ± 0.02 µM
- IC50 [3]: 53.1 ± 6.1 nM

SMILES: C#CC(N)=O [Propiolamide, reference compound]
- IC50 (EU-1 cells; [4]): 33.5 ± 7.8 µM
